Test results: US20070065803A1, “Patterns for a skeletal system” (CENTRE NATIONAL DE LA RECHERCHE SCIENTIFIQUE, priority 2003, published 2007)

System: osteoclasts derived from RAW-GFP deposited onto a layer of MC3T3-type osteoblast cells
Experiment: Crossing of the osteoblast layer by osteoclasts in the bone system model (confocal microscopy)
Type: cell-based, murine
Conditions: PP2 at 10 μM; untreated osteoclasts cross the layer after 1 hour to 1 hour 30 min; FIG. 4
Experimental: FIG. 4, images obtained by confocal microscopy 3D analysis, showing the organization of the two cell types according to the section along Z, in order to determine the effects of PP2 (FIG. 4B) in comparison with the control trial (FIG. 4A).
Cells of the murine osteoblast line MC 3T3 are placed in culture in α-MEM medium supplemented with 10% by volume of fetal calf serum, 10^−8M dexamethasone and 0.028 mM ascorbic acid. The cells are then detached and seeded at confluence onto the mineralized support.
The osteoclasts derived from human or murine primary cultures or from lines (for example, the RAW line or the human line GCT23) are obtained after 7 days of differentiation as described in Destaing et al. (Mol Biol Cell, Podosomes display actin turnover and dynamic self-organization in osteoclasts expressing actin-green fluorescent protein, 14(2):407-16, 2003). The osteoclast precursors are cultured in the presence of α-MEM medium supplemented with 10% by volume of fetal calf serum and of two recombinant cytokines: M-CSF and RANK-L ([…]). The cells are placed at 37° C. and 5% of CO2 and the medium is changed every two days for 7-8 days. The differentiated osteoclasts are detached with a solution of EDTA at 0.25 mM diluted in 1×PBS. The osteoclasts are seeded at a density of 10 cells/mm^2.
An inhibitor of the Src tyrosine kinase, PP2, was tested in the model according to the invention. […]

Structure (SMILES): CC(C)(C)n1nc(-c2ccc(Cl)cc2)c2c(N)ncnc21 [PP2]
- crossing (invasion) of the osteoblast cell layer by the osteoclasts: the osteoclasts no longer cross the osteoblast cell layer
